Where a name gives a salt, the structure may show the parent alone.
Biological target: human H4 receptor (Homo sapiens, UniProt Q9H3N8)
Test: biochemical
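Also: radioligand displacement of a [3H]-labelled ligand from membranes of CHO cells stably expressing human H4 receptor, bound radioactivity counted on filters by liquid scintillation.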

Ki | Structure (SMILES)
< 300 nM | Cc1ccccc1-c1cn2c(n1)C(OC1CCN(C)CC1)c1ccccc1CC2 (centres unmarked) [Example 8, 4-(1-methyl-piperidin-4-yloxy)-2-o-tolyl-9,10-dihydro-4H-3,10a-diaza-benzo[f]azulene]
< 1000 nM | C=Cc1cn2c(n1)C(OC1CCN(C)CC1)c1ccccc1CC2 (centres unmarked) [Example 9, 4-(1-methylpiperidin-4-yloxy)-2-vinyl-9,10-dihydro-4H-3,10a-diaza-benzo[f]azulene oxalate]
< 300 nM | CCc1cn2c(n1)C(OC1CCN(C)CC1)c1ccccc1CC2 (centres unmarked) [Example 13, 2-ethyl-4-(1-methylpiperidin-4-yloxy)-9,10-dihydro-4H-3,10a-diaza-benzo[f]azulene oxalate]
< 300 nM | CN1CCC(OC2c3ccccc3CCn3cc(-c4ccc(S(C)(=O)=O)cc4)nc32)CC1 (centres unmarked) [Example 17, 2-(4-methanesulfonylphenyl)-4-(1-methylpiperidin-4-yloxy)-9,10-dihydro-4H-3,10a-diaza-benzo[f]azulene]
< 1000 nM | CN1CCC(OC2c3ccccc3CCn3cc(-c4ccc(CO)cc4)nc32)CC1 (centres unmarked) [Example 18, {4-[4-(1-methylpiperidin-4-yloxy)-9,10-dihydro-4H-3,10a-diaza-benzo[f]azulen-2-yl]-phenyl}-methanol]
< 300 nM | COCc1ccc(-c2cn3c(n2)C(OC2CCN(C)CC2)c2ccccc2CC3)cc1 (centres unmarked) [Example 19, 2-(4-methoxymethylphenyl)-4-(1-methylpiperidin-4-yloxy)-9,10-dihydro-4H-3,10a-diaza-benzo[f]azulene oxalate]
< 1000 nM | CN1CCC(OC2c3ccccc3CCn3cc(-c4ccccn4)nc32)CC1 (centres unmarked) [Example 23, 4-(1-methylpiperidin-4-yloxy)-2-pyridin-2-yl-9,10-dihydro-4H-3,10a-diaza-benzo[f]azulene]
< 300 nM | CN1CCC(OC2c3ccccc3CCn3cc(-c4ccco4)nc32)CC1 (centres unmarked) [Example 24, 2-furan-2-yl-4-(1-methylpiperidin-4-yloxy)-9,10-dihydro-4H-3,10a-diaza-benzo[f]azulene]
< 30 nM | CC(C)Cc1ccc(-c2cn3c(n2)C(OC2CCN(C)CC2)c2ccccc2CC3)cc1 (centres unmarked) [Example 28, 2-(4-isobutylphenyl)-4-(1-methylpiperidin-4-yloxy)-9,10-dihydro-4H-3,10a-diaza-benzo[f]azulene]
< 1000 nM | CN1CCC(OC2c3ccccc3CCn3cc(-c4ccc(N(C)C)cc4)nc32)CC1 (centres unmarked) [Example 35, dimethyl-{4-[4-(1-methylpiperidin-4-yloxy)-9,10-dihydro-4H-3,10a-diaza-benzo[f]azulen-2-yl]-phenyl}-amine oxalate]
< 1000 nM | Cc1ccc(-c2cn3c(n2)C(OC2CCN(C)CC2)c2ccccc2CC3)cn1 (centres unmarked) [Example 39, 4-(1-methylpiperidin-4-yloxy)-2-(6-methylpyridin-3-yl)-9,10-dihydro-4H-3,10a-diaza-benzo[f]azulene oxalate]
< 1000 nM | CN1CCC(OC2c3ccccc3CCn3cc(-c4ncco4)nc32)CC1 (centres unmarked) [Example 40, 4-(1-methylpiperidin-4-yloxy)-2-oxazol-2-yl-9,10-dihydro-4H-3,10a-diaza-benzo[f]azulene oxalate]
< 1000 nM | CN1CCC(OC2c3ccccc3CCn3cc(-c4ccncc4)nc32)CC1 (centres unmarked) [Example 44, 4-(1-methylpiperidin-4-yloxy)-2-pyridin-4-yl-9,10-dihydro-4H-3,10a-diaza-benzo[f]azulene oxalate]
< 1000 nM | CN1CCC(OC2c3ccccc3CCn3cc(-c4cccnc4)nc32)CC1 (centres unmarked) [Example 45, 4-(1-methylpiperidin-4-yloxy)-2-pyridin-3-yl-9,10-dihydro-4H-3,10a-diaza-benzo[f]azulene oxalate]
< 1000 nM | CN1CCC(OC2c3ccccc3CCn3cc(-c4cncs4)nc32)CC1 (centres unmarked) [Example 48, 4-(1-methylpiperidin-4-yloxy)-2-thiazol-5-yl-9,10-dihydro-4H-3,10a-diaza-benzo[f]azulene oxalate]
< 300 nM | Cc1ccc(-c2cn3c(n2)C(OC2CCN(C)CC2)c2ccccc2CC3)o1 (centres unmarked) [Example 51, 2-(5-methylfuran-2-yl)-4-(1-methylpiperidin-4-yloxy)-9,10-dihydro-4H-3,10a-diaza-benzo[f]azulene oxalate]
< 30 nM | CN1CCC(OC2c3ccccc3CCn3cc(-c4ccc(Cl)cc4)nc32)CC1 (centres unmarked) [Example 52, 2-(4-chloro-phenyl)-4-(1-methylpiperidin-4-yloxy)-9,10-dihydro-4H-3,10a-diaza-benzo[f]azulene oxalate]
< 1000 nM | CN1CCC(OC2c3ccccc3CCn3cc(C=CC(=O)OC(C)(C)C)nc32)CC1 (centres unmarked) [Example 53, 3-[4-(1-methylpiperidin-4-yloxy)-9,10-dihydro-4H-3,10a-diaza-benzo[f]azulen-2-yl]-acrylic acid tert-butyl ester oxalate]
< 300 nM | Cc1cc(C(F)(F)F)ccc1-c1cn2c(n1)C(OC1CCN(C)CC1)c1ccccc1CC2 (centres unmarked) [Example 55, 4-(1-methylpiperidin-4-yloxy)-2-(2-methyl-4-trifluoromethyl-phenyl)-9,10-dihydro-4H-3,10a-diaza-benzo[f]azulene]

Ki | Structure (SMILES)
< 300 nM | CN1CCC(OC2c3ccccc3CCn3cc(C4=CCSCC4)nc32)CC1 (centres unmarked) [Example 57, 2-(3,6-dihydro-2H-thiopyran-4-yl)-4-(1-methylpiperidin-4-yloxy)-9,10-dihydro-4H-3,10a-diaza-benzo[f]azulene]
< 300 nM | CN1CCC(OC2c3ccccc3CCn3cc(C=CC4CCCCC4)nc32)CC1 (centres unmarked) [Example 59, 2-(2-cyclohexyl-vinyl)-4-(1-methylpiperidin-4-yloxy)-9,10-dihydro-4H-3,10a-diaza-benzo[f]azulene]
< 300 nM | Cc1ccc(-c2cn3c(n2)C(OC2CCN(C)CC2)c2ccccc2CC3)c(C)c1 (centres unmarked) [Example 61, 2-(2,4-dimethylphenyl)-4-(1-methylpiperidin-4-yloxy)-9,10-dihydro-4H-3,10a-diaza-benzo[f]azulene]
< 300 nM | CN1CCC(OC2c3ccccc3CCn3cc(-c4nccs4)nc32)CC1 (centres unmarked) [Example 66, 4-(1-methylpiperidin-4-yloxy)-2-thiazol-2-yl-9,10-dihydro-4H-3,10a-diaza-benzo[f]azulene oxalate]
< 30 nM | CN1CCC(OC2c3ccccc3CCn3cc(-c4ccc(Cl)cc4Cl)nc32)CC1 (centres unmarked) [Example 71, 2-(2,4-dichlorophenyl)-4-(1-methylpiperidin-4-yloxy)-9,10-dihydro-4H-3,10a-diaza-benzo[f]azulene oxalate]
< 300 nM | CN1CCC(OC2c3ccccc3CCn3cc(Sc4ccccc4)nc32)CC1 (centres unmarked) [Example 73, 4-(1-methylpiperidin-4-yloxy)-2-phenylsulfanyl-9,10-dihydro-4H-3,10a-diaza-benzo[f]azulene oxalate]
< 300 nM | CN1CCC(OC2c3cccc(Cl)c3CCn3cc(I)nc32)CC1 (centres unmarked) [Example 78, 8-chloro-2-iodo-4-(1-methylpiperidin-4-yloxy)-9,10-dihydro-4H-3,10a-diaza-benzo[f]azulene]
< 1000 nM | CN1CCC(OC2c3ccccc3CCn3cc(-c4cccn4C)nc32)CC1 (centres unmarked) [Example 83, 4-(1-methylpiperidin-4-yloxy)-2-(1-methyl-1H-pyrrol-2-yl)-9,10-dihydro-4H-3,10a-diaza-benzo[f]azulene]
< 300 nM | CN1CCC(OC2c3ccccc3CCn3cc(SCCNC(=O)OC(C)(C)C)nc32)CC1 (centres unmarked) [Example 84, {2-[4-(1-methylpiperidin-4-yloxy)-9,10-dihydro-4H-3,10a-diaza-benzo[f]azulen-2-ylsulfanyl]-ethyl}-carbamic acid tert-butyl ester oxalate]
< 300 nM | CN1CCC(OC2c3ccccc3CCn3cc(SCc4ccco4)nc32)CC1 (centres unmarked) [Example 85, 2-(furan-2-ylmethylsulfanyl)-4-(1-methylpiperidin-4-yloxy)-9,10-dihydro-4H-3,10a-diaza-benzo[f]azulene oxalate]
< 30 nM | CN1CCC(OC2c3ccccc3CCn3cc(C=CCCCc4ccccc4)nc32)CC1 (centres unmarked) [Example 89, 4-(1-methylpiperidin-4-yloxy)-2-(5-phenylpent-1-enyl)-9,10-dihydro-4H-3,10a-diaza-benzo[f]azulene]
< 300 nM | CN1CCC(OC2c3cccc(Cl)c3CCn3cc(-c4ccccc4)nc32)CC1 (centres unmarked) [Example 91, 8-chloro-4-(1-methylpiperidin-4-yloxy)-2-phenyl-9,10-dihydro-4H-3,10a-diaza-benzo[f]azulene]
< 300 nM | CN1CCC(OC2c3cccc(-c4ccccc4)c3CCn3cc(-c4ccccc4)nc32)CC1 (centres unmarked) [Example 92, 4-(1-methylpiperidin-4-yloxy)-2,8-diphenyl-9,10-dihydro-4H-3,10a-diaza-benzo[f]azulene]
< 30 nM | CN1CCC(OC2c3ccccc3CCn3cc(CCC4CCCCC4)nc32)CC1 (centres unmarked) [Example 95, 2-(2-cyclohexylethyl)-4-(1-methylpiperidin-4-yloxy)-9,10-dihydro-4H-3,10a-diaza-benzo[f]azulene oxalate]
< 300 nM | CN1CCC(OC2c3ccccc3CCn3cc(SC4CCCCC4)nc32)CC1 (centres unmarked) [Example 98, 2-cyclohexylsulfanyl-4-(1-methylpiperidin-4-yloxy)-9,10-dihydro-4H-3,10a-diaza-benzo[f]azulene oxalate]
< 1000 nM | CNc1ccc(-c2cn3c(n2)C(OC2CCN(C)CC2)c2ccccc2CC3)cc1 (centres unmarked) [Example 100, methyl-{4-[4-(1-methylpiperidin-4-yloxy)-9,10-dihydro-4H-3,10a-diaza-benzo[f]azulen-2-yl]-phenyl}-amine oxalate]
< 300 nM | CN1CCC(OC2c3ccccc3CCn3cc(-c4ccc(N(C)C(=O)C(C)(C)C)cc4)nc32)CC1 (centres unmarked) [Example 101, 2,2,N-trimethyl-N-{4-[4-(1-methylpiperidin-4-yloxy)-9,10-dihydro-4H-3,10a-diaza-benzo[f]azulen-2-yl]-phenyl}-propionamide oxalate]
< 30 nM | CN1CCC(OC2c3ccccc3CCn3cc(C=CCC4CCCC4)nc32)CC1 (centres unmarked) [Example 104, 2-(3-cyclopentylpropenyl)-4-(1-methylpiperidin-4-yloxy)-9,10-dihydro-4H-3,10a-diaza-benzo[f]azulene]
< 1000 nM | CN1CCC(OC2c3ccccc3CCn3cc(C4=CCOCC4)nc32)CC1 (centres unmarked) [Example 106, 2-(3,6-dihydro-2H-pyran-4-yl)-4-(1-methyldpiperidin-4-yloxy)-9,10-dihydro-4H-3,10a-diaza-benzo[f]azulene]

From patent US9255101B2 (BIOPROJECT, priority 2012, dated 2016)
